# Earlier results, collected in paper PMC4838521 (ChemMedChem, 2015).
# Target: YopH-NT (Yersinia pestis, UniProt O68720)
# Conditions: read-out: Kd for YopH-NT
# YopH-NT, sequence (O68720 1-129 limits assumed): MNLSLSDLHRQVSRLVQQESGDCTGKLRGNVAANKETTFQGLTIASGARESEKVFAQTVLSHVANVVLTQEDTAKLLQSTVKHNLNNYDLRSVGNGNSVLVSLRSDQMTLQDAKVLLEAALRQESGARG
row,Substance,Kd [µM]
1,cyclo-DE(pY)DDPfK,~15
2,cyclo-DE(pY)LDPfK,~23
